# Experimental data reported in PubChem BioAssay (NCI).
#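 Exposure lasted 48 hours, with cells grown in 96-well plates and compounds tested at five concentrations. TGI marks complete inhibition of growth.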
# Legend:
# Assay in all cases: NCI tumour cell line growth inhibition, 48 h
# IGROV1 ovarian = system: IGROV1 ovarian
# SN12C renal = system: SN12C renal
# SF-295 CNS = system: SF-295 CNS
# RXF 393 renal = system: RXF 393 renal
# LOX IMVI melanoma = system: LOX IMVI melanoma
# NCI-H23 lung = system: NCI-H23 lung
# ACHN renal = system: ACHN renal
# CAKI-1 renal = system: CAKI-1 renal
# UO-31 renal = system: UO-31 renal
# TK-10 renal = system: TK-10 renal
# SF-539 CNS = system: SF-539 CNS
# HCT-15 colon = system: HCT-15 colon
# HOP-62 NSCLC = system: HOP-62 NSCLC
# SW-620 colon = system: SW-620 colon
# OVCAR-8 ovarian = system: OVCAR-8 ovarian
# DMS 273 small cell lung = system: DMS 273 small cell lung
# EKVX NSCLC = system: EKVX NSCLC
# COLO 205 colon = system: COLO 205 colon
# M14 melanoma = system: M14 melanoma
# SR leukemia = system: SR leukemia
# K-562 leukemia = system: K-562 leukemia
# SNB-75 CNS = system: SNB-75 CNS
# UACC-257 melanoma = system: UACC-257 melanoma
# A498 renal = system: A498 renal
# 786-0 renal = system: 786-0 renal
# SK-MEL-2 melanoma = system: SK-MEL-2 melanoma
# RXF-631 renal = system: RXF-631 renal
# DMS 114 small cell lung = system: DMS 114 small cell lung
# HT29 colon = system: HT29 colon
# MALME-3M melanoma = system: MALME-3M melanoma
# OVCAR-3 ovarian = system: OVCAR-3 ovarian
# OVCAR-4 ovarian = system: OVCAR-4 ovarian
# NCI-H522 lung = system: NCI-H522 lung
# LXFL 529 NSCLC = system: LXFL 529 NSCLC
# KM20L2 colon = system: KM20L2 colon
# NCI-H460 lung = system: NCI-H460 lung
# M19-MEL melanoma = system: M19-MEL melanoma
# SK-MEL-5 melanoma = system: SK-MEL-5 melanoma
# HL-60(TB) leukemia = system: HL-60(TB) leukemia
# KM12 colon = system: KM12 colon
# UACC-62 melanoma = system: UACC-62 melanoma
# CCRF-CEM leukemia = system: CCRF-CEM leukemia
# SNB-19 CNS = system: SNB-19 CNS
# U251 CNS = system: U251 CNS
# A549 NSCLC = system: A549 NSCLC
# RPMI-8226 leukemia = system: RPMI-8226 leukemia
# MOLT-4 leukemia = system: MOLT-4 leukemia
# HCT-116 colon = system: HCT-116 colon
# HCC-2998 colon = system: HCC-2998 colon
# DLD-1 colon = system: DLD-1 colon
# NCI-H226 lung = system: NCI-H226 lung
# XF 498 CNS = system: XF 498 CNS
# HOP-18 NSCLC = system: HOP-18 NSCLC
# SNB-78 CNS = system: SNB-78 CNS
# SF-268 CNS = system: SF-268 CNS
# OVCAR-5 ovarian = system: OVCAR-5 ovarian
# SK-MEL-28 melanoma = system: SK-MEL-28 melanoma
# SK-OV-3 ovarian = system: SK-OV-3 ovarian
# HOP-92 NSCLC = system: HOP-92 NSCLC
smiles,measurement,setting,value
CS(=O)(=O)NNS(=O)(=O)c1ccc(Cl)cc1,TGI,IGROV1 ovarian,> 100 µM
same,TGI,SN12C renal,> 100 µM
same,TGI,SF-295 CNS,> 100 µM
same,TGI,RXF 393 renal,> 100 µM
same,TGI,LOX IMVI melanoma,> 100 µM
same,TGI,NCI-H23 lung,> 100 µM
same,TGI,ACHN renal,> 100 µM
same,TGI,CAKI-1 renal,> 100 µM
same,TGI,UO-31 renal,> 100 µM
same,TGI,TK-10 renal,> 100 µM
same,TGI,SF-539 CNS,> 100 µM
same,TGI,HCT-15 colon,> 100 µM
same,TGI,HOP-62 NSCLC,> 100 µM
same,TGI,SW-620 colon,> 100 µM
same,TGI,OVCAR-8 ovarian,> 100 µM
same,TGI,DMS 273 small cell lung,> 100 µM
same,TGI,EKVX NSCLC,> 100 µM
same,TGI,COLO 205 colon,> 100 µM
same,TGI,M14 melanoma,> 100 µM
same,TGI,SR leukemia,> 100 µM
same,TGI,K-562 leukemia,> 100 µM
same,TGI,SNB-75 CNS,> 100 µM
same,TGI,UACC-257 melanoma,> 100 µM
same,TGI,A498 renal,> 100 µM
same,TGI,786-0 renal,> 100 µM
same,TGI,SK-MEL-2 melanoma,> 100 µM
same,TGI,RXF-631 renal,> 100 µM
same,TGI,DMS 114 small cell lung,> 100 µM
same,TGI,HT29 colon,> 100 µM
same,TGI,MALME-3M melanoma,> 100 µM
same,TGI,OVCAR-3 ovarian,> 100 µM
same,TGI,OVCAR-4 ovarian,> 100 µM
same,TGI,NCI-H522 lung,> 100 µM
same,TGI,LXFL 529 NSCLC,> 100 µM
same,TGI,KM20L2 colon,> 100 µM
same,TGI,NCI-H460 lung,> 100 µM
same,TGI,M19-MEL melanoma,> 100 µM
same,TGI,SK-MEL-5 melanoma,> 100 µM
same,TGI,HL-60(TB) leukemia,> 100 µM
same,TGI,KM12 colon,> 100 µM
same,TGI,UACC-62 melanoma,> 100 µM
same,TGI,CCRF-CEM leukemia,> 100 µM
same,TGI,SNB-19 CNS,> 100 µM
same,TGI,U251 CNS,> 100 µM
same,TGI,A549 NSCLC,> 100 µM
same,TGI,RPMI-8226 leukemia,> 100 µM
same,TGI,MOLT-4 leukemia,> 100 µM
same,TGI,HCT-116 colon,> 100 µM
same,TGI,HCC-2998 colon,> 100 µM
same,TGI,DLD-1 colon,> 100 µM
same,TGI,NCI-H226 lung,96.3 µM
same,TGI,XF 498 CNS,> 100 µM
ClCc1ccc(C2OCCO2)cc1,TGI,IGROV1 ovarian,> 100 µM
same,TGI,SN12C renal,35.3 µM
same,TGI,SF-295 CNS,35.5 µM
same,TGI,RXF 393 renal,> 62 µM
same,TGI,HOP-18 NSCLC,> 92.2 µM
same,TGI,LOX IMVI melanoma,24.5 µM
same,TGI,NCI-H23 lung,17.2 µM
same,TGI,SNB-78 CNS,> 31.6 µM
same,TGI,ACHN renal,> 62 µM
same,TGI,UO-31 renal,> 56.2 µM
same,TGI,TK-10 renal,> 75.3 µM
same,TGI,SF-539 CNS,> 56.7 µM
same,TGI,HCT-15 colon,34.7 µM
same,TGI,SF-268 CNS,> 100 µM
same,TGI,HOP-62 NSCLC,41.2 µM
same,TGI,SW-620 colon,34.4 µM
same,TGI,OVCAR-8 ovarian,36.1 µM
same,TGI,DMS 273 small cell lung,45.3 µM
same,TGI,EKVX NSCLC,> 63 µM
same,TGI,COLO 205 colon,37.8 µM
same,TGI,M14 melanoma,34.3 µM
same,TGI,SR leukemia,> 79.7 µM
same,TGI,K-562 leukemia,> 31.6 µM
same,TGI,OVCAR-5 ovarian,> 63.9 µM
same,TGI,SNB-75 CNS,52.5 µM
same,TGI,UACC-257 melanoma,31.6 µM
same,TGI,A498 renal,45.3 µM
same,TGI,786-0 renal,54.4 µM
same,TGI,SK-MEL-28 melanoma,> 58.6 µM
same,TGI,SK-MEL-2 melanoma,42.2 µM
same,TGI,RXF-631 renal,> 100 µM
same,TGI,DMS 114 small cell lung,> 42.9 µM
same,TGI,HT29 colon,32.6 µM
same,TGI,MALME-3M melanoma,49.9 µM
same,TGI,SK-OV-3 ovarian,> 82 µM
same,TGI,OVCAR-3 ovarian,49.2 µM
same,TGI,NCI-H522 lung,28.6 µM
same,TGI,LXFL 529 NSCLC,37.2 µM
same,TGI,KM20L2 colon,> 69 µM
same,TGI,NCI-H460 lung,39.4 µM
same,TGI,M19-MEL melanoma,37.8 µM
same,TGI,SK-MEL-5 melanoma,> 55.5 µM
same,TGI,HL-60(TB) leukemia,12.5 µM
same,TGI,KM12 colon,18.4 µM
same,TGI,UACC-62 melanoma,> 52 µM
same,TGI,CCRF-CEM leukemia,> 69.7 µM
same,TGI,SNB-19 CNS,> 59 µM
same,TGI,U251 CNS,17.2 µM
same,TGI,A549 NSCLC,> 80.7 µM
same,TGI,RPMI-8226 leukemia,74.6 µM
same,TGI,HOP-92 NSCLC,38.2 µM
same,TGI,MOLT-4 leukemia,45.6 µM
same,TGI,HCT-116 colon,> 52.1 µM
same,TGI,HCC-2998 colon,32 µM
same,TGI,DLD-1 colon,34.3 µM
same,TGI,NCI-H226 lung,40.1 µM
same,TGI,XF 498 CNS,33.3 µM
Cc1c(Cl)cccc1NC(=O)/C(Cl)=C(\Cl)C(=O)O,TGI,IGROV1 ovarian,35.7 µM
same,TGI,SN12C renal,31.2 µM
same,TGI,SF-295 CNS,37.9 µM
same,TGI,RXF 393 renal,36.9 µM
same,TGI,HOP-18 NSCLC,31.7 µM
same,TGI,LOX IMVI melanoma,32.7 µM
same,TGI,NCI-H23 lung,33.8 µM
same,TGI,SNB-78 CNS,44.7 µM
same,TGI,ACHN renal,31.3 µM
same,TGI,CAKI-1 renal,33.9 µM
same,TGI,UO-31 renal,32.7 µM
same,TGI,TK-10 renal,35.2 µM
same,TGI,SF-539 CNS,31.7 µM
same,TGI,HCT-15 colon,30 µM
same,TGI,SF-268 CNS,40.9 µM
same,TGI,HOP-62 NSCLC,78.5 µM
same,TGI,SW-620 colon,39.9 µM
same,TGI,DMS 273 small cell lung,38.4 µM
same,TGI,COLO 205 colon,21.6 µM
same,TGI,M14 melanoma,30.9 µM
same,TGI,SR leukemia,39.6 µM
same,TGI,K-562 leukemia,> 100 µM
same,TGI,OVCAR-5 ovarian,30.6 µM
same,TGI,SNB-75 CNS,46.7 µM
same,TGI,UACC-257 melanoma,36.7 µM
same,TGI,A498 renal,> 100 µM
same,TGI,786-0 renal,33.3 µM
same,TGI,SK-MEL-28 melanoma,35.4 µM
same,TGI,SK-MEL-2 melanoma,49.2 µM
same,TGI,RXF-631 renal,56.7 µM
same,TGI,DMS 114 small cell lung,36.5 µM
same,TGI,HT29 colon,38 µM
same,TGI,MALME-3M melanoma,32.2 µM
same,TGI,SK-OV-3 ovarian,33.3 µM
same,TGI,OVCAR-3 ovarian,34.1 µM
same,TGI,OVCAR-4 ovarian,31.6 µM
same,TGI,NCI-H522 lung,7.19 µM
same,TGI,LXFL 529 NSCLC,46.5 µM
same,TGI,KM20L2 colon,40.9 µM
same,TGI,NCI-H460 lung,> 100 µM
same,TGI,M19-MEL melanoma,30.7 µM
same,TGI,SK-MEL-5 melanoma,38.2 µM
same,TGI,KM12 colon,31.1 µM
same,TGI,UACC-62 melanoma,26.6 µM
same,TGI,CCRF-CEM leukemia,44.5 µM
same,TGI,SNB-19 CNS,> 100 µM
same,TGI,U251 CNS,32.7 µM
same,TGI,A549 NSCLC,38.9 µM
same,TGI,RPMI-8226 leukemia,56.5 µM
same,TGI,HOP-92 NSCLC,31.6 µM
same,TGI,MOLT-4 leukemia,48.2 µM
same,TGI,HCT-116 colon,27.4 µM
same,TGI,HCC-2998 colon,35.5 µM
same,TGI,DLD-1 colon,40.6 µM
same,TGI,NCI-H226 lung,51.3 µM
